Test results from US20040131581A1, “Novel synergistic antimicrobial compositions and methods” (SureCide Technologies, LLC, priority 2001, published 2004).
Entries after “also recorded” stand apart in the source; their conditions may differ. Where a name gives a salt, the structure may show the parent alone.

Legend:
[1] = pH of the litter-containing nutrient broth after incubation; type: physicochemical; details: for pH: Example 6, tube solution after 24 hours at 37° C.; for pH of the growth media after incubation in the presence of litter: Example 4
Protocol: Two extra tubes were used for positive growth (cells only) and negative growth (no cells) growth controls. 18 ml of NB was added to each tube, and […]. The tubes were incubated for 24 hours at 37° C., after which the pH was measured and the number of tubes for each treatment showing signs of bacterial growth were counted.

[2] = tested on: Salmonella choleraesuis (strain 10708); assay: Growth of Salmonella in nutrient broth containing treated rice-hull litter, visual examination; type: cell-based; details: for Growth of Salmonella upon litter treated with one or more treatment composition components: Example 4, 7 g litter treated, Tables 5A, 5B, 5C; for Growth of Salmonella upon litter treated with various concentrations of treatment composition: Example 6, litter of Example 4 re-tested, 24 hours at 37° C.; for Growth of Salmonella in the Presence of an Iodophore: Example 7, 7 g litter treated 30 minutes, 0.5 g litter, 24 hrs at 37° C.
Protocol: . After exposing the litter to the antimicrobial composition, the preparations were filtered and the impregnated litter filtrates were dried and placed in separate culture tubes. Sterile nutrient broth (NB) was added to each tube and appropriate tubes were inoculated with 10^3 cfu/mL of Salmonella. All tubes were incubated overnight and examined visually. Visual interpretation results were confirmed by subculturing all culture tubes to plated media. […]
After soaking, the test preparations were removed from the litter material by vacuum filtration. The wet litter was spread on paper towels and allowed to dry between about 5 hours and overnight, followed by approximately 45 minutes exposure to desiccant.
Each of the treated litter samples was tested in triplicate for the ability to reduce or inhibit growth of an inoculated Salmonella culture. Three aliquots of litter (0.5 g each) from each of the four batches of treated litter (FeCl3/citrate, chitosan, FeCl3/citrate/chitosan, and water) were measured and placed in test tubes, to which 18 mL of microbial nutrient broth (Hardy Diagnostics, Santa Maria Calif.) was added. Control test tubes containing untreated litter (e) and no litter (f) were also prepared.
The tubes containing the treated litter were inoculated with 2 mL of a 10^4 cells/mL stock Salmonella solution (final concentration of 10^3 cells/mL). The inoculated tubes were incubated at 37° C. for 24 hours, then visually examined for positive cell growth. In addition, a sample from each test tube was subcultured onto nutrient and MacConkey agar.

| Molecule | pH [1] | Growth of Salmonella upon litter treated with one or more treatment composition components [2] | Growth of Salmonella upon litter treated with various concentrations of treatment composition [2] | pH of the growth media after incubation in the presence of litter [1] | Growth of Salmonella upon litter treated with one or more treatment composition components ([2]; listed as acetic acid) | Growth of Salmonella in the Presence of an Iodophore [2] |
| --- | --- | --- | --- | --- | --- | --- |
| [Cl][Fe]([Cl])[Cl] [50 mM Fe, FeCl3] | pH 6.3 | Growth | Growth |  |  |  |
| O=C(O)CC(O)(CC(=O)O)C(=O)O [50 mM citrate] | pH 6.4 | Growth | Growth |  |  |  |
| CC(=O)O [Acetic Acid] |  | Growth |  | ~6 | completely ineffective |  |
| Cl [HCl] |  | completely ineffective; also recorded: Growth |  | ~6 |  |  |
| povidone-iodine complex [0.1% PIC] |  |  |  |  |  | ineffective |
| povidone-iodine complex [.25% PIC] |  |  |  |  |  | Growth |
